# Measurements taken from patent publication US20230321063A1, “COMPOSITIONS AND METHODS TO REDUCE NEUROINFLAMMATION” (Seattle Children's Hospital d/b/a Seattle Children's …, priority 2020, published 2023).
# What was measured:
# Ndufs4(KO) mice [1] = experiment: Body weight, growth and cachexia onset; type: in vivo, mouse
# Description: Ndufs4(+/−) mice were bred to produce Ndufs4(KO) (Ndufs4(−/−)) offspring. Mice were weaned at 20-21 days of age. Ndufs4(KO) animals were housed with a minimum of one control littermate for warmth and stimulation. Mice were weighed, and health assessed, a minimum of 3 times per week, every other day (daily for IP injected mice, see herein). Where longitudinal blood point-of-care data was collected, this was performed during these health checks. Wetted chow in a dish on the bottom of each cage, and in-cage water bottles, were provided to all cages housing Ndufs4(KO) mice following the onset of disease so that the ability to find or reach food or water was not a limiting factor for survival.
# Cachexia in FIG. 4H and FIG. 6E is the day of life when weight peaks prior to the progressive weight loss which occurs in untreated Ndufs4(KO) animals.
# [2] = tested on: microglia in mixed neonatal brain-cell cultures; experiment: Fraction of microglia in mixed primary brain cultures (Iba1 staining); type: cell-based, mouse
# Description: Mixed brain cell culturing and staining. Briefly, using sterile technique, brains were removed from neonatal pups into ice-cold HBSS (Gibco cat. #14025076). Brains were washed three times in cold PBS. After the third wash, brains were minced using surgical scissors into small, fine pieces. The minced brain was centrifuged at 100 g for 5 min. Once pelleted, PBS was removed and 0.05% trypsin/EDTA (Gibco) was added. The tissue in trypsin/EDTA was then incubated at 37° C. with gentle shaking for 15-30 min, with intermittent mixing and supplemental mincing, until the solution was homogenous and without tissue segments. After incubation, the minced tissue was placed back into the centrifuge at 100 g 5 min. Pellet was washed 3× with cold PBS before adding fresh media to each tube. The tissue was further dissociated using 1000 μL pipet until the solution became cloudy. The sample was washed through a sterile 70-micron cell strainer (Corning) into a 50 mL falcon tube, then plated onto T75 poly-d-lysine coated Nunclon flasks (Nunc EasyFlask132704) at a ratio of one brain to two flasks. After 24 hours, dead cell/debris were washed and media replaced. Cells were then grown for 1 additional day, split onto multi-well plates with poly-d-lysine coated coverslips (Cellware 12 mm round coverslips) at 25% confluence with ABI-009 or pexidartinib (for dose-response) added. […]
# [3] = tested on: control and Ndufs4(KO) mice; experiment: Glucose tolerance test (GTT) and glucose induced lactate test; type: in vivo, mouse; conditions: 2 g/kg glucose IP; pexidartinib 300 mg/kg/d in chow, IPI-549 100 mg/kg/d in chow, rapamycin (ABI-009) 8 mg/kg/d IP
# Text: Point-of-care glucose and lactate testing. Blood glucose and lactate measurements were collected using point-of-care meters (Prodigy Autocode® glucose meter, product #51850-3466188, Prodigy® Diabetes Care, LLC, Charlotte, NC; lactate assay meter, product #40828, Nova Biomedical, Waltham, MA) and the tail-prick method, as previously described (Stokes et al. Elife 2021; 10:e65400).
# Glucose tolerance test (GTT) and glucose induced lactate test. Prior to performing the GTT, mice were fasted for 4 hours, from 10 AM-2 PM. The fasting duration was limited to 4 hours given the sensitivity of untreated Ndufs4(KO) animals to hypoglycemia and related sequelae (dysregulation of body temperature, hypoglycemia induced seizure, etc.). For the ABI-009 cohort, mice received their daily ABI-009 treatment at the start of this fasting period. At the end of the 4 hour fast, baseline blood glucose and lactate values were collecting using point-of-care meters and the tail-prick method. Mice were then injected by IP with 2 g/kg dextrose (10 microliters/gram body weight of 200 mg/mL glucose in 1×PBS, 0.2 micron sterile filtered) using an insulin syringe (31-gauge, 6 mm length, 3/10 cc, BD Veo Ultra-Fine needle). Glucose and lactate levels were measured using a minimally invasive tail-prick method at designated timepoints post-injection.
# Ndufs4(KO) mice [4] = experiment: Minimum Alveolar Concentration (MAC) of isoflurane associated with anesthesia; type: in vivo, mouse; conditions: 300 mg/kg/day, P30 Ndufs4(KO) animals
# Text: In particular embodiments, effective amounts can be evidenced by reduced sensitivity to volatile anesthetics. Sensitivity to volatile anesthetics can be determined by measuring the minimum alveolar concentration (MAC). MAC provides a correlation between the dose of an anesthetic and immobility. (Lobo et al. (2020) StatPearls, World Wide Web at ncbi.nlm.nih.gov/books/NBK532974/). […] MAC can be expressed as volumes percent of alveolar (end-tidal) gas at one atmosphere pressure at sea level (i.e., 760 mm Hg). In particular embodiments, volatile anesthetics can include nitrous oxide, isoflurane, desflurane, halothane, and sevoflurane. Mice can be exposed to an anesthetic by using a vaporizer at a particular flow rate (e.g., 3-4 liters/min) through a humidifier in-line. […] In particular embodiments, sensitivity to volatile anesthetics can be reduced in a subject administered a composition including a therapeutically effective amount of an inhibitor of the disclosure, as compared to sensitivity to volatile anesthetics in the subject not administered the composition, as measured by a relevant test such as MAC.
# To test whether leukocyte depletion might impact VA hypersensitivity, the Minimum Alveolar Concentration (MAC) of isoflurane associated with anesthesia in control and 300 mg/kg/day pexidartinib treated Ndufs4(KO) animals was assessed (see Experimental Methods in Example 1 for details). […]
# [5] = cited from earlier work
structure (smiles),measurement,setting,value
"FC(F)(F)c1ccc(CNc2ccc(Cc3c[nH]c4ncc(Cl)cc34)cn2)cn1 [pexidartinib, 5-[(5-chloro-1H-pyrrolo[2,3-b]pyridin-3-yl)methyl]-N-[[6-(trifluoromethyl)pyridin-3-yl]methyl]pyridin-2-amine]",cachexia,Ndufs4(KO) mice [1],prevented
same,maximum effect on microglia,[2],nearly complete depletion of microglia
same,fraction of microglia present in mixed neonatal brain-cell cultures,"[2]; dose-response, fixed on day 7",dose-dependently reduced
same,blood lactate spike in response to a glucose bolus,[3],prevented this spike in blood lactate
same,hypersensitivity to sedation by isoflurane (MAC),Ndufs4(KO) mice [4],"modest, but statistically significant, attenuation"
same,liver damage,[5]; patients,known to cause liver damage
same,hair color in humans,[5]; reports in humans,hair whitening in humans
